SMILES strings stand for the structures.

The assay addresses T1, CSBP/p38 (Homo sapiens, UniProt Q16539).
T1 construct: made in house; host or cells: yeast
Kind of assay: CSBP Kinase Assay (transfer of 32P from ATP to EGFR-derived peptide T669). It is filed as biochemical. Here is the method: This assay measures the CSBP-catalyzed transfer of ^32P from [a-^32P]ATP to threonine residue in an epidermal growth factor receptor (EGFR)-derived peptide (T669) with the following sequence: […] (residues 661-681). (See Gallagher et al., “Regulation of Stress Induced Cytokine Production by Pyridinyl Imidazoles: Inhibition of CSPB Kinase”, BioOrganic & Medicinal Chemistry, 1997, 5, 49-64).
Reactions were carried in round bottom 96 well plate (from Corning) in a […]. Reactions contained (in final concentration): 25 mM Hepes, pH7.5; 10 mM MgCl2; 0.17 mM ATP (the Km[ATP] of p38 (see Lee et al., Nature […], n72 pg. 639-746 (December 1994) and Young et al., J. Biol. Chem. 272, n18 pg. 12116-12121 (May 1997)); 2.5 uCi of [g-32P]ATP; 0.2 mM sodium orthovanadate; 1 mM DTT; 0.1% BSA; 10% glycerol; 0.67 mM T669 peptide; and 2-4 nM of yeast-expressed, activated and purified p38. Reactions were initiated by the addition of [gamma-32P]Mg/ATP, and incubated for 25 min at 37 C. Inhibitors (dissolved in DMSO) were incubated with the reaction mixture on ice for 30 minutes prior to adding the 32P-ATP. Final DMSO concentration was 0.16%. […] Filters were washed with 75 mM phosphoric acids, and incorporated 32P was quantified using beta scintillation counter. […]

T1 sequence (Q16539 whole entry): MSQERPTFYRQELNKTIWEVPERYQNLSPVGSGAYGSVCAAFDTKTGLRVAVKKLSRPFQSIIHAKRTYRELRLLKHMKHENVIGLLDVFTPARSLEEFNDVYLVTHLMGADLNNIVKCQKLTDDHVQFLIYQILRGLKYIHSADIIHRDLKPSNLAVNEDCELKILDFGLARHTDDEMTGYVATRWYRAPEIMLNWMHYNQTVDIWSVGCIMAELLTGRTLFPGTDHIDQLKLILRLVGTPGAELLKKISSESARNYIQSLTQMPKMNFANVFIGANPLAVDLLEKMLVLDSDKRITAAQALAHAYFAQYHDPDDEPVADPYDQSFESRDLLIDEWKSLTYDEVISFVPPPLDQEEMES

One may read the IC50 as the point on the concentration scale where inhibition reaches its midpoint. In the case of `Fc1ccc(-c2nccnc2-c2ccncc2)cc1` [Example 2, 2-(4-Fluorophenyl)-3-(pyridin-4-yl)pyrazine], the concentration for half-maximal inhibition (IC50) (CSBP kinase assay, called "this binding assay", read-out: positive inhibitory activity, IC50) was below 50 µM.

With `COc1ccc2cc(-c3nccnc3-c3ccncc3)ccc2c1` [Example 3, 2-(6-Methoxy)napthyl-2-yl-3-(4-pyridyl)pyrazine], the “inhibitory activity upon retesting” value (upon retesting, "at this micromolar amount" (IC50 of <50 uM)) is on record as “not found active”.

These data come from patent US6861417B2, “Pyridin-4-YL or pyrimidin-4-YL substituted pyrazines” (SmithKline Beecham Corporation, priority 1998, dated 2005).
